Assay results from ChEMBL document CHEMBL3232888, “Optimization of anti-virulence PqsR antagonists regarding aqueous solubility and biological properties resulting in new insights in structure-activity relationships” (Eur J Med Chem, 2014).
≈ marks a conversion by molar mass, not a printed value.

Experiments:
[1] = Aqueous solubility of the compound in 2% DMSO at pH 7.4 by HPLC analysis; assay type: physicochemical; conditions: aqueous medium with 2% DMSO
[2] = test system: Pseudomonas aeruginosa; assay: Antagonist activity at Pseudomonas aeruginosa PqsR expressed in Escherichia coli DH5alpha assessed as inhibition of PQS-induced transcriptional activity at 5 uM by beta-galactosidase reporter gene assay relative to PQS
[3] = test system: Pseudomonas aeruginosa; assay: Growth inhibition of Pseudomonas aeruginosa; assay type: organism-based; conditions: in vivo
[4] = Antagonist activity at Pseudomonas aeruginosa PqsR expressed in Escherichia coli DH5alpha assessed as inhibition of PQS-induced transcriptional activity by beta-galactosidase reporter gene assay relative to PQS
[5] = test system: Pseudomonas aeruginosa; assay: Agonist activity at Pseudomonas aeruginosa PqsR expressed in Escherichia coli DH5alpha assessed as induction of transcriptional activity at 5 uM by beta-galactosidase reporter gene assay relative to PQS
[6] = test system: Pseudomonas aeruginosa; assay: Antagonist activity at Pseudomonas aeruginosa PqsR expressed in Escherichia coli DH5alpha assessed as inhibition of PQS-induced transcriptional activity at 50 nM by beta-galactosidase reporter gene assay relative to PQS
[7] = test system: Pseudomonas aeruginosa; assay: Antivirulence activity in Pseudomonas aeruginosa PA14 assessed as reduction of extracellular level of pyocyanin at 15 uM relative to control; assay type: functional; parameters: scale not given: the % may be the effect or the level left
[8] = test system: Pseudomonas aeruginosa; assay: Antivirulence activity in Pseudomonas aeruginosa PA14 assessed as reduction of extracellular level of PQS at 15 uM by UHPLC-MS/MS analysis relative to control; assay type: functional; parameters: scale not given: the % may be the effect or the level left
[9] = test system: Pseudomonas aeruginosa; assay: Antivirulence activity in Pseudomonas aeruginosa PA14 assessed as reduction of extracellular level of pyocyanin; assay type: functional
[10] = Metal chelating activity of the compound assessed as CAS iron-chelation after 15 mins; assay type: physicochemical; conditions: 0.25 h
[11] = test system: Pseudomonas aeruginosa; assay: Antivirulence activity in Pseudomonas aeruginosa PA14 assessed as reduction of extracellular level of PQS at 250 uM by UHPLC-MS/MS analysis relative to control; assay type: functional; parameters: scale not given: the % may be the effect or the level left
[12] = test system: Pseudomonas aeruginosa; assay: Antivirulence activity in Pseudomonas aeruginosa PA14 assessed as reduction of extracellular level of pyocyanin at 250 uM relative to control; assay type: functional; parameters: scale not given: the % may be the effect or the level left
[13] = test system: Pseudomonas aeruginosa; assay: Antivirulence activity in Pseudomonas aeruginosa PA14 assessed as reduction of extracellular level of pyocyanin at 100 uM relative to control; assay type: functional; parameters: scale not given: the % may be the effect or the level left
[14] = test system: Pseudomonas aeruginosa; assay: Antivirulence activity in Pseudomonas aeruginosa PA14 assessed as reduction of extracellular level of PQS at 100 uM by UHPLC-MS/MS analysis relative to control; assay type: functional; parameters: scale not given: the % may be the effect or the level left
[15] = test system: Pseudomonas aeruginosa; assay: Antivirulence activity in Pseudomonas aeruginosa PA14 assessed as reduction of extracellular level of PQS at 10 uM by UHPLC-MS/MS analysis relative to control; assay type: functional; parameters: scale not given: the % may be the effect or the level left
[16] = test system: Pseudomonas aeruginosa; assay: Antivirulence activity in Pseudomonas aeruginosa PA14 assessed as reduction of extracellular level of pyocyanin at 10 uM relative to control; assay type: functional; parameters: scale not given: the % may be the effect or the level left
[17] = test system: Pseudomonas aeruginosa; assay: Agonist activity at Pseudomonas aeruginosa PqsR expressed in Escherichia coli DH5alpha assessed as induction of transcriptional activity at 1 uM by beta-galactosidase reporter gene assay relative to PQS
[18] = test system: Pseudomonas aeruginosa; assay: Agonist activity at Pseudomonas aeruginosa PqsR expressed in Escherichia coli DH5alpha assessed as induction of transcriptional activity at 10 uM by beta-galactosidase reporter gene assay relative to PQS

Structure (SMILES)	solubility [1]	inhibition [2]	Activity [5]	inhibition [6]	Activity [3]	IC50 [4]	also measured
CCCCCCc1cc(=O)c2cc(C(F)(F)F)ccc2n1C	15 µM (≈ 4.67 µg/mL)	100%	0%	45%	Non-toxic	229 nM	
CCCCCOCc1cc(=O)c2ccccc2[nH]1	> 200 µM	6%	0.89%	11%			
CCCCCCCc1[nH]c2ccc([N+](=O)[O-])cc2c(=O)c1CO	5 µM (≈ 1.59 µg/mL)	100%	0%	45%	Non-toxic	72 nM	Activity [7]: 83%; Activity [8]: 33%; IC50 [9]: 3800 nM; Activity [10]: Not Active
CCCCCOCc1cc(=O)c2cc([N+](=O)[O-])ccc2[nH]1	15 µM (≈ 4.35 µg/mL)	100%	0%	49%	Non-toxic	253 nM	Activity [7]: 27%; Activity [8]: 23%
CCOCCCCc1cc(=O)c2cc(C(F)(F)F)ccc2[nH]1	> 200 µM	69%	0.02%	8%	Non-toxic	1710 nM	Activity [11]: 8.6%; Activity [12]: 39%
CCOCCCCc1cc(=O)c2cc([N+](=O)[O-])ccc2[nH]1	50 µM (≈ 14.5 µg/mL)	72%	0.13%	6%	Non-toxic	3510 nM	Activity [13]: 23%; Activity [14]: 13%
CCCCCCCc1cc(=O)c2cc(C(F)(F)F)ccc2[nH]1	< 5 µM	100%	0%	54%	Non-toxic	54 nM	Activity [15]: 2.4%; Activity [16]: 27%
CCCCCOCc1cc(=O)c2cc(C(F)(F)F)ccc2[nH]1	15 µM (≈ 4.7 µg/mL)	100%	0%	29%	Non-toxic	172 nM	Activity [7]: 29%; Activity [8]: 21%
CCCCCCCc1cc(=O)c2ccccc2[nH]1							Activity [17]: 0.75%
CCOCCCCc1cc(=O)c2ccccc2[nH]1	> 200 µM	42%	0.31%	54%			
CCCCCCCc1cc(OC)c2ccccc2n1	5 µM (≈ 1.29 µg/mL)	-6%	0.03%	-23%			
CCCCCCCc1cc(=O)c2cc([N+](=O)[O-])ccc2[nH]1	< 5 µM	100%		73%	Non-toxic	51 nM	Activity [7]: 44%; Activity [8]: 14%; Activity [18]: 0%
CCCCCCCc1cc(O)c2ccccc2n1	15 µM (≈ 3.65 µg/mL)						
CCCCCCCc1[nH]c2ccc([N+](=O)[O-])cc2c(=O)c1C(N)=O	15 µM (≈ 4.97 µg/mL)	100%	0%	60%	Non-toxic	35 nM	Activity [7]: 81%; Activity [8]: 37%; IC50 [9]: 2000 nM; Activity [10]: Not Active
CCCCCCCc1cc(=O)c2cc(C(F)(F)F)ccc2n1C	5 µM (≈ 1.63 µg/mL)	100%	0%	31%	Non-toxic	270 nM	Activity [7]: 58%; Activity [8]: 8.9%

Further lines, with some results ahead:

solubility [1]	inhibition [2]	Activity [5]	inhibition [6]	Structure (SMILES)	Activity [3]	IC50 [4]	also measured
5 µM (≈ 1.58 µg/mL)	32%	0%	18%	CCCCCCCc1[nH]c2ccccc2c(=O)c1C(=O)OCC			
50 µM (≈ 16.7 µg/mL)	33%	0.42%	1%	CCOCCCCc1[nH]c2ccc([N+](=O)[O-])cc2c(=O)c1C(=O)O			
15 µM (≈ 4.31 µg/mL)	41%	0.73%	12%	CCCCCCCc1[nH]c2ccccc2c(=O)c1C(=O)O			
> 200 µM	29%	0.83%	15%	CCCCCCCc1[nH]c2ccccc2c(=O)c1C(=O)NO			
50 µM (≈ 13.7 µg/mL)	28%	0.49%	5%	CCCCCCCc1[nH]c2ccccc2c(=O)c1CO			
50 µM (≈ 16.7 µg/mL)	6%	0.48%	7%	CCCCCOCc1[nH]c2ccc([N+](=O)[O-])cc2c(=O)c1C(=O)O			
5 µM (≈ 1.8 µg/mL)	20%	0%	-8%	CCCCCCCc1[nH]c2ccc([N+](=O)[O-])cc2c(=O)c1C(=O)OCC			
< 5 µM	-29%	1.25%	-31%	CCCCCCCc1[nH]c2ccc([N+](=O)[O-])cc2c(=O)c1O			
> 200 µM	78%	0.3%	30%	CCCCCCCc1[nH]c2ccc([N+](=O)[O-])cc2c(=O)c1C(=O)NO			
5 µM (≈ 1.43 µg/mL)	27%	0.65%	8%	CCCCCCCc1[nH]c2ccccc2c(=O)c1C(N)=O			
5 µM (≈ 1.81 µg/mL)	27%	0.09%	2%	CCOCCCCc1[nH]c2ccc([N+](=O)[O-])cc2c(=O)c1C(=O)OCC			
< 5 µM	17%	0.84%	14%	CCCCCCCc1[nH]c2ccccc2c(=O)c1[N+](=O)[O-]			
50 µM (≈ 12.9 µg/mL)	-7%	1.22%	-4%	CCCCCCCc1[nH]c2ccccc2c(=O)c1N			
15 µM (≈ 4.99 µg/mL)	34%	0.78%	11%	CCCCCCCc1[nH]c2ccc([N+](=O)[O-])cc2c(=O)c1C(=O)O			
50 µM (≈ 12.2 µg/mL)	2%	0.82%	8%	CCCCCCCc1cc(=O)c2cnccc2[nH]1			
50 µM (≈ 15.8 µg/mL)	76%	0.02%	24%	CCCCCCCc1[nH]c2ccncc2c(=O)c1C(=O)OCC			
15 µM (≈ 5.44 µg/mL)	13%	0%	2%	CCCCCOCc1[nH]c2ccc([N+](=O)[O-])cc2c(=O)c1C(=O)OCC			
50 µM (≈ 14.4 µg/mL)	20%	0.66%	6%	CCCCCCCc1[nH]c2ccncc2c(=O)c1C(=O)O			
